# Experimental data: ChEMBL document CHEMBL1201862, “PubChem BioAssay data set” (2004)
# The source made the active and inactive calls.
# Legend:
# [1] = biological target: Mitogen-activated protein kinase 10 (Homo sapiens, UniProt P53779); test: Dose response biochemical screening assay for inhibitors of c-Jun N-Terminal Kinase 3 (JNK3). [Related pubchem assays: 746 ]
# [2] = biological target: Photoreceptor-specific nuclear receptor (Homo sapiens, UniProt Q9Y5X4); test: NR2E3 inverse agonists, dose response, biochemical, TR-FRET (AID 463256); format: functional
# [3] = biological target: ADP-ribosylation factor GTPase-activating protein 1 (Rattus norvegicus, UniProt Q62848); test: Fluorescence polarization-based biochemical high throughput dose response screening assay to identify inhibitors of ADP-ribosylation factor GTPase activating protein 1 (ARFGAP1).; format: functional
# ADP-ribosylation factor GTPase-activating protein 1, sequence (Q62848 whole entry): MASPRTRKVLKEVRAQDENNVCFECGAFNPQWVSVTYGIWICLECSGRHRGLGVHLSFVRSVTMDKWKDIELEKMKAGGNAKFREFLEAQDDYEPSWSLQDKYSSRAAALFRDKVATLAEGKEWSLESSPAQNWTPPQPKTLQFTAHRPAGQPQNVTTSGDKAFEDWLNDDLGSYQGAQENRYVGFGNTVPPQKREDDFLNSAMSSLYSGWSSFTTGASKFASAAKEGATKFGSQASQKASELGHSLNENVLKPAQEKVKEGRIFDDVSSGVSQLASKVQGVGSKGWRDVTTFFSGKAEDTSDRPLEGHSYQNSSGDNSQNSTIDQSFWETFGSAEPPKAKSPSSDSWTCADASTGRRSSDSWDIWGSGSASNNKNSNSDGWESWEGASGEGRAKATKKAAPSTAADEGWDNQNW
# [4] = biological target: Peroxisome proliferator-activated receptor gamma/Nuclear receptor corepressor 2 (Homo sapiens, UniProt P37231+Q9Y618); test: Counterscreen for NR2E3 inverse agonists: TR-FRET-based biochemical high throughput dose response assay to identify inverse agonists of the interaction between peroxisome proliferator-activated receptor gamma (PPARg) and nuclear receptor co-repressor 2 (NCOR2).; format: functional
# [5] = M. tuberculosis H37Rv growth inhibitors, H37Rv strain (AID 1626); format: functional
# [6] = biological target: Protein-tyrosine kinase 2-beta (Homo sapiens, UniProt Q14289);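 note: potency of inhibitors of PYK2 kinase phosphorylation of poly-GT substrate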
# [7] = biological target: T1, Mannose-6-phosphate isomerase (Homo sapiens, UniProt P34949); test: inhibitors of human PMI, primary screen, biochemical, fluorescence intensity, coupled assay (AID 1209)
# T1 sequence (P34949 whole entry): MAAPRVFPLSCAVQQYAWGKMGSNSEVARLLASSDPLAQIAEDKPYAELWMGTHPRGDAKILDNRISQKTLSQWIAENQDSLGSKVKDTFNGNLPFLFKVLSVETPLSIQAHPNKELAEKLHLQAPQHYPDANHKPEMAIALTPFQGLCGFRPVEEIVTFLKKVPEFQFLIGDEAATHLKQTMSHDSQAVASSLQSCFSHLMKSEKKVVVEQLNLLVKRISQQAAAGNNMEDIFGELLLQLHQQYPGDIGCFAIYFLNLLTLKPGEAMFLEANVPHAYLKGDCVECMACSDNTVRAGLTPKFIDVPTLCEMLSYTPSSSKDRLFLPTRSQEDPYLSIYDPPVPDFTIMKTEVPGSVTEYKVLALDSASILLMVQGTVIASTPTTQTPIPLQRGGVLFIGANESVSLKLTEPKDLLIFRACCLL
# Genome polyprotein = Genome polyprotein (Hepatitis C virus, UniProt Q2Q167); test: HCV core protein dimerization inhibitors, dose response, biochemical, TR-FRET (AID 2159); set-up: species or system Hepacivirus hominis;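 note: blocks dimerization of HCV core protein measured by TR-FRET between tagged core106 pairs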
# Genome polyprotein, sequence (Q2Q167 whole entry): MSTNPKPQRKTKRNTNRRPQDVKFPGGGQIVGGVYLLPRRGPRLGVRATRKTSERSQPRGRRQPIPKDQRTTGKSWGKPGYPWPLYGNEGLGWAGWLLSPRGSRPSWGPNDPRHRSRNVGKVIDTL
# Ephrin type-A receptor 4 = Ephrin type-A receptor 4 (Mus musculus, UniProt Q03137); test: inhibitors of EphA4 binding to KYL peptide, primary screen, biochemical, colorimetric, mouse EphA4 (AID 689); format: functional
# Ephrin type-A receptor 4, sequence (Q03137 whole entry): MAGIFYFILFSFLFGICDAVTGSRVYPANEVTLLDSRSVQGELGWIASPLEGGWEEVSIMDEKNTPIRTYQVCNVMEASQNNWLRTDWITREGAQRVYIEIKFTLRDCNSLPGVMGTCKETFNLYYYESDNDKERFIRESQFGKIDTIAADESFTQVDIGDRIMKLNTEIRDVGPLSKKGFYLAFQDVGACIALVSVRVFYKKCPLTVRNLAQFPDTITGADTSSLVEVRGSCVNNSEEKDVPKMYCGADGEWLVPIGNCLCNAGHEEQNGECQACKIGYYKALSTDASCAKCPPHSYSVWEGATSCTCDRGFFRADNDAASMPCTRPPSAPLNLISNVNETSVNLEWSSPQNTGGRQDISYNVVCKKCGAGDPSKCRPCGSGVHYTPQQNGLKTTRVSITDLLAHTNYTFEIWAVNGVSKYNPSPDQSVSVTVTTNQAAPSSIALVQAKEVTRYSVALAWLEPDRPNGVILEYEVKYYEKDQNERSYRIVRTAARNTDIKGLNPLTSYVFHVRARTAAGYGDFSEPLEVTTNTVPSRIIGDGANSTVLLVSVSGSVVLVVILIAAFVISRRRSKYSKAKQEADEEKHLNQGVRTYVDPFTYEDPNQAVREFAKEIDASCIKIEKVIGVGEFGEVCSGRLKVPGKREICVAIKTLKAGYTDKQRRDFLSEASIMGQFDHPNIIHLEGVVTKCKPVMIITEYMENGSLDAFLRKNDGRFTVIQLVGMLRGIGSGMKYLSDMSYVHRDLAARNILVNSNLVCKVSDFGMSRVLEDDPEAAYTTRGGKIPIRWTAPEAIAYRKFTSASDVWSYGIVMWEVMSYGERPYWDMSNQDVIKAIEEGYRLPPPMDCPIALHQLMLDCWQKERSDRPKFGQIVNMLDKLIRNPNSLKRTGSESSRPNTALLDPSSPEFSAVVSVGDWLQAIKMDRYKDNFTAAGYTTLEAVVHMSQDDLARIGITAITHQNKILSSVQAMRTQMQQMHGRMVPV
# [8] = A549 cell cytotoxicity, dose response, cytotoxicity control, plate reader, cherry-pick, antagonist series (AID 743412); format: functional, cell-based
# [9] = Plasmodium falciparum Dd2 Sybr green parasite growth Measured in Cell-Based and Microorganism Combination System Using Plate Reader - 2153-01_Inhibitor_Dose_DryPowder_Activity_Set3.; format: functional
# [10] = HepG2 cell cytotoxicity, dose response, cytotoxicity control, plate reader, dry powder samples (AID 1159569); format: functional, cell-based;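 note: inhibitor potency with signal falling toward the positive control level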
# [11] = P. falciparum ATP4 D1247Y mutant growth inhibitors, dose response, NITD609-resistant line, SYBR Green, dry powder (AID 1159571); format: functional, cell-based;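 note: parasites synchronized at ring stage by sorbitol before testing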
# [12] = P. falciparum Dd2 growth inhibitors, dose response, SYBR Green, cherry-picked samples (AID 1159567); format: functional, cell-based
# [13] = P. falciparum Dd2 growth inhibitors, dose response, SYBR Green, dry powder samples (AID 1159566); format: functional, cell-based;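 note: potency for growth inhibition with lower SYBR green DNA signal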
# [14] = P. falciparum 3D7-ScDHODH growth inhibitors, dose response, SYBR Green, dry powder samples (AID 1159570); format: functional, cell-based;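 note: parasite growth measured after 72 hours of compound exposure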
# D(1B) dopamine receptor = D(1B) dopamine receptor (Homo sapiens, UniProt P21918); test: Counterscreening of D4 Antagonists against Dopamine 5 DRD5 (Human), Confirmatory Assay.; format: functional
# D(1B) dopamine receptor, sequence (P21918 whole entry): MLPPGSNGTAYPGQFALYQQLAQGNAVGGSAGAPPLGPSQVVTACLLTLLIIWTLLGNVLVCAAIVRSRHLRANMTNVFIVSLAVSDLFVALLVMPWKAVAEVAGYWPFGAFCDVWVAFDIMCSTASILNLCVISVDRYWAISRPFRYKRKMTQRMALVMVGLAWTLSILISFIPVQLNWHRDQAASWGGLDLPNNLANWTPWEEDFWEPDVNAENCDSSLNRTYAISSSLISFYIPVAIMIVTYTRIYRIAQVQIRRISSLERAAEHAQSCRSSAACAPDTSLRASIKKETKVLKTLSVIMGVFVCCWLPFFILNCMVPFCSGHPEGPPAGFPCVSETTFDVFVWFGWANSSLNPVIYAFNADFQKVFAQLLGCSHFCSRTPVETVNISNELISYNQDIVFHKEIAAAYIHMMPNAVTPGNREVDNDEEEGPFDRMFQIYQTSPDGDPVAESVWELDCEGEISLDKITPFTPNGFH
# D(1A) dopamine receptor = D(1A) dopamine receptor (Homo sapiens, UniProt P21728); test: Counterscreening of D4 Antagonists against Dopamine 1 (Human), Confirmatory Assay.; format: functional
# D(3) dopamine receptor = D(3) dopamine receptor (Homo sapiens, UniProt P35462); test: Counterscreening of D4 Antagonists against Dopamine 3 DRD3 (Human), Confirmatory Assay.; format: functional
# D(3) dopamine receptor, sequence (P35462 whole entry): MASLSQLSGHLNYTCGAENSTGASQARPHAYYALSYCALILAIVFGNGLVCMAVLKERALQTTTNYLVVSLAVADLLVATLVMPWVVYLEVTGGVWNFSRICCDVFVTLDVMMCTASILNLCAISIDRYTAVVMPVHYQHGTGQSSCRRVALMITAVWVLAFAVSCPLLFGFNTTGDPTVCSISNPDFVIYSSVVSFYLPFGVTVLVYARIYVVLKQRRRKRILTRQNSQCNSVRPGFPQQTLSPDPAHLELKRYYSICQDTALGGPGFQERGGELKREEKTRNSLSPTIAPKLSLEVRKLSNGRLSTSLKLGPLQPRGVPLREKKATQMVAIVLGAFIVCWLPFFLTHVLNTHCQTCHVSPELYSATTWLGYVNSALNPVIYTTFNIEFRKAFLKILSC
# D(2) dopamine receptor = D(2) dopamine receptor (Homo sapiens, UniProt P14416); test: Counterscreening of D4 Antagonists against Dopamine 2S (Human), Confirmatory Assay.; format: functional
# D(2) dopamine receptor, sequence (P14416 whole entry): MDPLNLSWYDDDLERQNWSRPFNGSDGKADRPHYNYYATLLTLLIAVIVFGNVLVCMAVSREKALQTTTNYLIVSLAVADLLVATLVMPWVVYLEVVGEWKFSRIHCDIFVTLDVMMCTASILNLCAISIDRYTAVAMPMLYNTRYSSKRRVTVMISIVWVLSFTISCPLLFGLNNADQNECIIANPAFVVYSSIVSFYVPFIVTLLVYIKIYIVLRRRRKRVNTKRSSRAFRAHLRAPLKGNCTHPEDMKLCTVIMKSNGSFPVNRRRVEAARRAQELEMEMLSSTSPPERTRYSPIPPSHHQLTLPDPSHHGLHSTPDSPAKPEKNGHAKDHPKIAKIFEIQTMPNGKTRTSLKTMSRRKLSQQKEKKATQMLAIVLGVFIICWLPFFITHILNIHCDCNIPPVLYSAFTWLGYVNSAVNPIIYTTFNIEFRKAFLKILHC
# [15] = biological target: Metabotropic glutamate receptor 7 (Homo sapiens, UniProt Q14831); test: mGlu7 positive allosteric modulators, dose response, cell-based, calcium mobilization, Galpha15 (AID 743384); format: functional
# Metabotropic glutamate receptor 7, sequence (Q14831 whole entry): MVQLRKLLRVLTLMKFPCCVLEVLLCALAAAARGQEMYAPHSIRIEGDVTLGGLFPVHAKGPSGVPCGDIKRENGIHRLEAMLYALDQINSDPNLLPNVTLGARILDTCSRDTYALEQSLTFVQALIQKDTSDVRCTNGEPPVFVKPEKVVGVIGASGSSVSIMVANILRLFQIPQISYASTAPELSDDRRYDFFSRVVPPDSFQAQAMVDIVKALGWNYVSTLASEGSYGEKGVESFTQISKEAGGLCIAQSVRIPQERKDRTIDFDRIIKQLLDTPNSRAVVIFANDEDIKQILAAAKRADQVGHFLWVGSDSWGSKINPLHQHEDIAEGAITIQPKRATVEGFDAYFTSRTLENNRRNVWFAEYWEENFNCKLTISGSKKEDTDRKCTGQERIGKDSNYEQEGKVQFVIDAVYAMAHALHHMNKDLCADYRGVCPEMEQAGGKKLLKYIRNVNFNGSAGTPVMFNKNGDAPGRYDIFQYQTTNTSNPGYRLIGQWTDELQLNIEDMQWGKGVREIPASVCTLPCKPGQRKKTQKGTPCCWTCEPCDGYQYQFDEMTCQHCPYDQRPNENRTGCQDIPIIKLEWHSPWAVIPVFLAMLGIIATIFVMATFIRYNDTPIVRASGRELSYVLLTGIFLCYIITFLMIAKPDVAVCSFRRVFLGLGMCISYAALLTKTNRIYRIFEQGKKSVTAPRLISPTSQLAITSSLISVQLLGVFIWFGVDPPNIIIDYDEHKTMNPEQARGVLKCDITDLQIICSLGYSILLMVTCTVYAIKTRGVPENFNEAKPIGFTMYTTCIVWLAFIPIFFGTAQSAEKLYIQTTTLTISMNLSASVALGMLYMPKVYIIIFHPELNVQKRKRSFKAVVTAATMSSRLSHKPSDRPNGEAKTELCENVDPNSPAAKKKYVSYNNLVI
# [16] = Glucagon-like peptide 1 release potency, NCI-H716 cell line, dose-response, half-maximal inhibitory concentration (AID 1117344); format: functional, cell-based
# Large T antigen = Large T antigen (Simian virus 40, UniProt P03070); format: functional, Betapolyomavirus macacae;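 note: Confirmatory-stage PubChem screen for compounds that inhibit SV40 T antigen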
# Large T antigen, sequence (P03070 whole entry): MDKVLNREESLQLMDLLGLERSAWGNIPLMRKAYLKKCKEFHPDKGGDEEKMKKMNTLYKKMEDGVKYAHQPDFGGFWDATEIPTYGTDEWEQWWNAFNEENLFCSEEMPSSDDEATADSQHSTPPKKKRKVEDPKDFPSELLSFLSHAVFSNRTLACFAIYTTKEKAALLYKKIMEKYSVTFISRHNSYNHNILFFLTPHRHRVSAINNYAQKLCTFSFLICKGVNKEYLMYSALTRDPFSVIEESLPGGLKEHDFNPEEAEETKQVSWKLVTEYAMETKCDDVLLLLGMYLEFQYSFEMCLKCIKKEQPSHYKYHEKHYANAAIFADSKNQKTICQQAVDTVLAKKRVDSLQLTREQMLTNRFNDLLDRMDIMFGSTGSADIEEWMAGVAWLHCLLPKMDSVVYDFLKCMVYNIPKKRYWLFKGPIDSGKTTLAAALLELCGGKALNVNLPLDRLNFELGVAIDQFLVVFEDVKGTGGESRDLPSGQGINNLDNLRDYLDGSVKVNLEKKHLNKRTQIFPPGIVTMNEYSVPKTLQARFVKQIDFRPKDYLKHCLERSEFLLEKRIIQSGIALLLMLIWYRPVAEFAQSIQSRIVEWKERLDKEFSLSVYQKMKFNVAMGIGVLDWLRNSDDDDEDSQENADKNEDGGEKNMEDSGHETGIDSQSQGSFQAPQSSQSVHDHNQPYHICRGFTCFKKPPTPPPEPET
# [17] = half-maximal inhibitory concentration for glucagon-like peptide-1 release, STC-1 cell line, dose-response (AID 1117345); format: functional, cell-based
# [18] = Dose-response inhibition of insulin secretion in a rat insulinoma line at 5 mM glucose (AID 1117331); format: functional, cell-based; settings: INS-1E
# Mitogen-activated protein kinase 10, sequence (P53779 whole entry): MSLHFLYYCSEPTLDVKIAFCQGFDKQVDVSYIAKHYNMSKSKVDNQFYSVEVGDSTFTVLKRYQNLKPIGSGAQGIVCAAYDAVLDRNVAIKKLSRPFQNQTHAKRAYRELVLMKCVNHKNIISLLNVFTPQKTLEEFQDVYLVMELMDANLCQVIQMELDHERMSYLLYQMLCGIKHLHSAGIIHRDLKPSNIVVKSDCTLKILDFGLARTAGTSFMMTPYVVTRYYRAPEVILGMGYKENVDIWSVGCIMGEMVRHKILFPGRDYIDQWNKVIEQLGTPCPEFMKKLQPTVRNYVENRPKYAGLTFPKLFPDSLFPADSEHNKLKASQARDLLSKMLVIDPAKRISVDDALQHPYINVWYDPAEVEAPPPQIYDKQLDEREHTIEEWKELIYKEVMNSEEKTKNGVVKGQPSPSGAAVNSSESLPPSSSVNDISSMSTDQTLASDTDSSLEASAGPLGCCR
structure (smiles),measurement,setting,value
N#Cc1c(N)nc2c(c1-c1ccco1)CCCCC2,IC50,[1],> 93.1 µM (not active)
Cc1c(C(=O)Nc2ccc(-n3cnnn3)cc2)oc2ccccc12,IC50,[2],8.46 µM (active)
same,IC50,[3],78.5 µM (inactive)
same,IC50,[4],7.48 µM (active)
O=C(Oc1ccc2ccc(O)cc2c1)C1CCCCC1,IC50,[5],> 100 µM (active)
CCOc1ccc(S(=O)(=O)N(CC(=O)N/N=C/c2ccc(-c3ccc([N+](=O)[O-])cc3)o2)c2ccccc2)cc1,IC50,[6],15.8 µM (not active)
same,IC50,[7],36.4 µM (active)
same,IC50,Genome polyprotein,> 49.8 µM (not active)
same,IC50,Ephrin type-A receptor 4,45.6 µM (active)
CCCNC(=O)N1[C@H](C#N)[C@H](c2ccc(C#Cc3ccc(F)cc3)cc2)[C@H]1CO,AC50,[8],24.7 µM (active)
same,AC50,[9],0.00982 µM (active)
same,AC50,[10],22.3 µM (active)
same,AC50,[11],0.0156 µM (active)
same,AC50,[12],< 0.3 µM (active)
same,AC50,[13],0.016 µM (active)
same,AC50,[14],7.89 µM (active)
Clc1ccc(CN2CCO[C@H](CCc3ccccc3)C2)cc1,IC50,D(1B) dopamine receptor,20 µM (inactive)
same,IC50,D(1A) dopamine receptor,20 µM (inactive)
same,IC50,D(3) dopamine receptor,20 µM (inactive)
same,IC50,D(2) dopamine receptor,20 µM (inactive)
CC(=O)Nc1ccc(SCC(=O)c2cc(C)n(CCc3cccs3)c2C)cc1,EC50,[15],2 µM (active)
Oc1ccc(O)cc1 [HYDROQUINONE],IC50,[16],> 40 µM (inactive)
same,IC50,Large T antigen,7.76 µM (active)
same,IC50,[17],1.01 µM (active)
same,IC50,[18],> 33.3 µM (inactive)
